In this experiment the test system is angiotensin I-converting enzyme (ACE). Briefly: ACE inhibitory activity assay (fluorometric ACE activity assay kit). The experiment is classed as biochemical. To be noted: peptide sample 1 mg/mL; for ACE inhibitory activity, mean±SD / inhibition: 37 °C, fluorescence ex 320/em 405 nm, n = 3, mean ± SD. Here is the method: The ACE inhibitory activity assay was performed following the method outlined by Batista et al., with slight modifications, using a fluorometric angiotensin I-converting enzyme (ACE) activity assay kit from Sigma-Aldrich (catalog number CS0002), Burlington, Massachusetts, USA. In summary, 10 µ L of the sample (1 mg/mL for the peptide sample and 50 µg/mL for ramipril) was combined with 40 µ L of the ACE solution (CS0002B) in 96-well flat-bottom black plates at 37 °C for 5 min. Next, 50 µ L of the substrate solution (CS0002C) was added to this mixture to initiate the reaction. A fluorescence multiwell plate reader was used to monitor the changes in fluorescence. The sample’s fluorescence was measured every min for 5 min, with excitation at 320 nm and emission at 405 nm. All reagents, except the test sample, were prepared to assess the ACE positive control activity. A kit standard solution (CS0002D) was diluted with assay buffer (CS0002A) to create different concentrations (nmol) of the standard solution, allowing generation of a standard curve. The slope of the standard curve (RFU/nmol) and the slope of the sample kinetic curve were utilized to calculate the ACE activity using the following equation (3):
ACEactivitynmol/min=Slopesample/Slopestandard×DF (3)
Where Slopesample refers to the slope of the blank-subtracted sample curve (RFU/min), Slopestandard refers to the slope of the blank-subtracted standard curve (RFU/nmol), DF is the dilution factor, and 0.1 nmol/min is equivalent to […].
In this study, the results of ACE inhibitory activity are expressed as percentages. The ACE inhibitory activity (%) was calculated using the following equation (4):
ACEinhibitoryactivity%=ACEPC–ACES/ACEPC×100 (4)
Where ACEPC represents the ACE activity of the positive control, and ACES denotes the ACE activity of the sample.

Regarding “DAENKENVEE [P18, synthesized peptide identified from jellyfish fraction PUR20C]”, under “SD”, the “ACE inhibitory activity, mean±SD” value is on record as 22.80±2.33^G %. The ACE inhibitory activity runs as follows: (replicate 1) 20.13%; (replicate 2) 23.85%; (replicate 3) 24.42%.

As for “EIDKLPPESRP [P7, synthesized peptide identified from jellyfish fraction PUR20C]”, the inhibition (commonly the drop in the measured response relative to a control, in per cent) (SD) amounted to 8.68 ± 0.49%. In addition, the ACE inhibitory activity (replicate 1) came out at 8.11%, the ACE inhibitory activity (replicate 2) was found to be 8.96% and the ACE inhibitory activity (replicate 3) is listed as 8.96%.

Consider “EQIYPMGEGDEL [P4, synthesized peptide identified from jellyfish fraction PUR20C]”, for which the “ACE inhibitory activity, mean±SD” value (SD) is recorded as 5.15±0.92^J %. For the same sequence, the ACE inhibitory activity (replicate 1) is on record as 5.53%, the ACE inhibitory activity (replicate 2) turned out to be 4.10% and the ACE inhibitory activity (replicate 3) came out at 5.82%.

For the sequence “GKNCGETVWE [P9, synthesized peptide identified from jellyfish fraction PUR20C]”, for the setting “SD”, the inhibition was 7.53 ± 1.74%. In addition, the ACE inhibitory activity reads like this: (replicate 1) 5.53%; (replicate 2) 8.68%; (replicate 3) 8.39%.

For “HSVLTASYRN [P5, synthesized peptide identified from jellyfish fraction PUR20C]”, the “ACE inhibitory activity, mean±SD” value (SD) is 29.10±3.81^F %. This sequence gave an ACE inhibitory activity (replicate 1) of 24.71%, an ACE inhibitory activity (replicate 2) of 31.01% and an ACE inhibitory activity (replicate 3) of 31.58%.

On to “KFNEVVYFL [P15, synthesized peptide identified from jellyfish fraction PUR20C]”, for which the “ACE inhibitory activity, mean±SD” value (SD) is on record as 55.43±3.55^C %. Also, the ACE inhibitory activity is, setting by setting: (replicate 1) 57.63%; (replicate 2) 51.33%; (replicate 3) 57.34%.

For “LGAEGRSP [P13, synthesized peptide identified from jellyfish fraction PUR20C]”, where the note is “SD”, the “ACE inhibitory activity, mean±SD” value is 20.51±1.81^G %. Also, the ACE inhibitory activity came out at 21.56% (replicate 1), 18.41% (replicate 2) and 21.56% (replicate 3).

With “LNIPKPKLNLL [P11, synthesized peptide identified from jellyfish fraction PUR20C]”, where the note is “SD”, the “ACE inhibitory activity, mean±SD” value is 22.90±3.15^G %. In addition, the ACE inhibitory activity runs as follows: (replicate 1) 19.27%; (replicate 2) 25.00%; (replicate 3) 24.42%.

As for “MVVACVLPEA [P16, synthesized peptide identified from jellyfish fraction PUR20C]”, the “ACE inhibitory activity, mean±SD” value was 91.69%. The ACE inhibitory activity (replicate 1) stood at 92.27%. Under “replicate 2”, this sequence had an ACE inhibitory activity of 89.69%. The ACE inhibitory activity (replicate 3) is reported as 93.12%.

“NQKAMQELNE [P1, synthesized peptide identified from jellyfish fraction PUR20C]” displayed an inhibition (SD) of 6.48 ± 0.33%. The ACE inhibitory activity runs as follows: (replicate 1) 6.67%; (replicate 2) 6.67%; (replicate 3) 6.10%.

Regarding “PFTMYFLL [P14, synthesized peptide identified from jellyfish fraction PUR20C]”, the “ACE inhibitory activity, mean±SD” value (SD) is 81.87±0.33^B %. Besides, the ACE inhibitory activity by setting is: (replicate 1) 81.67%; (replicate 2) 81.67%; (replicate 3) 82.25%.

Regarding “PMETDDQPNN [P17, synthesized peptide identified from jellyfish fraction PUR20C]”, the “ACE inhibitory activity, mean±SD” value (SD) is listed as 12.40±2.23^H %. In addition, the ACE inhibitory activity reads like this: (replicate 1) 9.82%; (replicate 2) 13.54%; (replicate 3) 13.83%.

As to “RARVVPMY [P6, synthesized peptide identified from jellyfish fraction PUR20C]”, the “ACE inhibitory activity, mean±SD” value (SD) was 33.68±0.59^E %. Also, the ACE inhibitory activity turned out to be 33.87% (replicate 1), 33.01% (replicate 2) and 34.16% (replicate 3).

Turning to “RPLAKIIP [P8, synthesized peptide identified from jellyfish fraction PUR20C]”, the “ACE inhibitory activity, mean±SD” value (SD) is on record as 29.96±3.35^F %. The sequence further returned an ACE inhibitory activity (replicate 1) of 32.44%, an ACE inhibitory activity (replicate 2) of 26.14% and an ACE inhibitory activity (replicate 3) of 31.29%.

In the case of “TDSPAPSETTD [P2, synthesized peptide identified from jellyfish fraction PUR20C]”, under “SD”, the “ACE inhibitory activity, mean±SD” value is listed as 0.85±0.33^K %. The same sequence came in with an ACE inhibitory activity (replicate 1) of 0.66%, an ACE inhibitory activity (replicate 2) of 1.24% and an ACE inhibitory activity (replicate 3) of 0.66%.

Values taken from publication PMC11813147, “Bioactivity assessment of peptides derived from salted jellyfish (Rhopilema hispidum) byproducts” (PLOS ONE, 2025).
